Experimental data published in PubChem BioAssay AID1259411 (Chemical Carcinogenesis Research Information System (CCRIS), 2018).
Active and inactive are the calls of the source. No rule for the calls is given here.

System: rodent carcinogenicity bioassays, tumor incidence
Assay: CCRIS carcinogenicity studies
How it was run: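 Archive of carcinogenicity, mutagenicity, tumor promotion and tumor inhibition results drawn from journals, NCI reports and other sources, expert-reviewed; covers 1985-2011 and is no longer updated.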

Measured: carcinogen call

[O]=[Cd]
inactive: Species: HAMSTER, Strain/Sex: SYRIAN/MALE, Route: INHALATION, Dose: 0, 10 UG/M3 19 HR/D 5 D/WK FOR 65 WK FOR A TOTAL CADMIUM DOSE OF 0, 63 MG/M3 (STUDY DURATION: 113 WK), Dose: 0, 10 UG/M3 19 HR/D 5 D/WK FOR 65 WK FOR A TOTAL CADMIUM DOSE OF 0, 63 MG/M3 (STUDY DURATION: 113 WK) inactive; negative | Species: HAMSTER, Strain/Sex: SYRIAN/MALE, Route: INHALATION, Dose: 0, 90 UG/M3 8 HR/D 5 D/WK FOR 65 WK FOR A TOTAL CADMIUM DOSE OF 0, 216 MG/M3 (STUDY DURATION: 113 WK), Dose: 0, 90 UG/M3 8 HR/D 5 D/WK FOR 65 WK FOR A TOTAL CADMIUM DOSE OF 0, 216 MG/M3 (STUDY DURATION: 113 WK) inactive; negative | Species: HAMSTER, Strain/Sex: SYRIAN/MALE, Route: INHALATION, Dose: 0, 270 UG/M3 8 HR/D 5 D/WK FOR 53 WK FOR A TOTAL CADMIUM DOSE OF 0, 522 MG/M3 (STUDY DURATION: 70 WK), Dose: 0, 270 UG/M3 8 HR/D 5 D/WK FOR 53 WK FOR A TOTAL CADMIUM DOSE OF 0, 522 MG/M3 (STUDY DURATION: 70 WK) inactive; negative | Species: RAT, Strain/Sex: WISTAR/FEMALE, Route: INHALATION, Dose: 0, 30 UG/M3 8 HR/D,5D/WK FOR 18 MO (STUDY DURATION: 18 MO) inactive; negative | Species: RAT, Strain/Sex: WISTAR/FEMALE, Route: INHALATION, Dose: 0, 90 UG/M3 OF CADMIUM OXIDE DUST 40 HR/WK FOR 6 MO (STUDY DURATION: 31 MO) inactive; negative | Species: RAT, Strain/Sex: WISTAR/MALE, Route: INHALATION, Dose: 0, 10 UG/M3 CADMIUM OXIDE FUME 22 HR/D 7 D/WK FOR 18 MO (STUDY DURATION: 31 MO) inactive; negative | Species: RAT, Strain/Sex: WISTAR/MALE, Route: INHALATION, Dose: 0, 10 UG/M3 FUME 22 HR/D 7 D/WK FOR 18 MO (STUDY DURATION: 31 MO) inactive; negative | Species: RAT, Strain/Sex: WISTAR/MALE, Route: INHALATION, Dose: 0, 10 UG/M3 OF CADMIUM OXIDE FUME 22 HR/D 7 D/WK FOR 18 MO (STUDY DURATION: 31 MO) inactive; negative | Species: RAT, Strain/Sex: WISTAR/MALE, Route: INHALATION, Dose: 0, 30 UG/M3 OF CADMIUM OXIDE FUME 22 HR/D 7 D/WK FOR 18 MO (STUDY DURATION: 31 MO) inactive; negative | Species: RAT, Strain/Sex: WISTAR/MALE, Route: INHALATION, Dose: 0, 90 UG/M3, 8 HR/D, 5D/WK FOR 7.1 MO (STUDY DURATION: 7.1 MO) inactive; negative | Species: RAT, Strain/Sex: WISTAR/MALE, Route: INHALATION, Dose: 0, 90 UG/M3 OF CADMIUM OXIDE DUST 40 HR/WK FOR 6 MO (STUDY DURATION: 31 MO) inactive; negative
active: Species: RAT, Strain/Sex: FEMALE, Route: SUBCUTANEOUS, Dose: 25 MG ONCE, Tumor Site: Type of Lesion: INJECTION SITE: SARCOMA active; positive | Species: RAT, Strain/Sex: FEMALE, Route: SUBCUTANEOUS, Dose: 25 MG, SINGLE DOSE, Tumor Site: Type of Lesion: INJECTION SITE active; positive | Species: RAT, Strain/Sex: WISTAR/FEMALE, Route: INHALATION, Dose: 0, 30 UG/M3 CADMIUM OXIDE DUST 22 HR/D 7 D/WK FOR 18 MO (STUDY DURATION: 31 MO), Tumor Site: Type of Lesion: LUNG: TUMOR active; positive | Species: RAT, Strain/Sex: WISTAR/FEMALE, Route: INHALATION, Dose: 0, 30 UG/M3 DUST 22 HR/D 7 D/WK FOR 18 MO (STUDY DURATION: 31 MO), Tumor Site: Type of Lesion: LUNG: ALVEOLAR/BRONCHIOLAR ADENOMA, ADENOCARCINOMA, SQUAMOUS CELL CARCINOMA active; positive | Species: RAT, Strain/Sex: WISTAR/FEMALE, Route: INHALATION, Dose: 0, 30 UG/M3 OF CADMIUM OXIDE DUST 22 HR/D 7 D/WK FOR 18 MO (STUDY DURATION: 31 MO), Tumor Site: Type of Lesion: LUNG: ALVEOLAR/BRONCHIOLAR ADENOMA, ADENOCARCINOMA, SQUAMOUS CELL CARCINOMA active; positive | Species: RAT, Strain/Sex: WISTAR/FEMALE, Route: INHALATION, Dose: 0, 90 UG/M3 CADMIUM OXIDE DUST 22 HR/D 7 D/WK FOR 4 MO (STUDY DURATION: 31 MO), Tumor Site: Type of Lesion: LUNG: TUMOR active; positive | Species: RAT, Strain/Sex: WISTAR/FEMALE, Route: INHALATION, Dose: 0, 90 UG/M3 CADMIUM OXIDE DUST DISCONTINOUS EXPOSURE FOR 40 HR/WK FOR 6 MO (STUDY DURATION: 31 MO), Tumor Site: Type of Lesion: LUNG: TUMOR active; positive | Species: RAT, Strain/Sex: WISTAR/FEMALE, Route: INHALATION, Dose: 0, 90 UG/M3 DUST 8 HR/D 5 D/WK FOR 6 MO (STUDY DURATION: 31 MO), Tumor Site: Type of Lesion: LUNG: ADENOCARCINOMA, SQUAMOUS CELL CARCINOMA active; positive | Species: RAT, Strain/Sex: WISTAR/FEMALE, Route: INHALATION, Dose: 0, 90 UG/M3 DUST 22 HR/D 7 D/WK FOR 11 MO (STUDY DURATION: 31 MO), Tumor Site: Type of Lesion: LUNG: ALVEOLAR/BRONCHIOLAR ADENOMA, ADENOCARCINOMA, SQUAMOUS CELL CARCINOMA active; positive | Species: RAT, Strain/Sex: WISTAR/FEMALE, Route: INHALATION, Dose: 0, 90 UG/M3 OF CADMIUM OXIDE DUST 22 HR/D 7 D/WK FOR 11 MO (STUDY DURATION: 31 MO), Tumor Site: Type of Lesion: LUNG: ALVEOLAR/BRONCHIOLAR ADENOMA, ADENOCARCINOMA, SQUAMOUS CELL CARCINOMA active; positive | Species: RAT, Strain/Sex: WISTAR/MALE, Route: INHALATION, Dose: 0, 30 UG/M3 CADMIUM OXIDE DUST 22 HR/D 7 D/WK FOR 18 MO (STUDY DURATION: 31 MO), Tumor Site: Type of Lesion: LUNG: ADENOMA OR ADENOCARCINOMA OR SQUAMOUS CELL TUMOR OR ADENOSQUAMOUS CARCINOMA active; positive | Species: RAT, Strain/Sex: WISTAR/MALE, Route: INHALATION, Dose: 0, 30 UG/M3 CADMIUM OXIDE DUST 22 HR/D 7 D/WK FOR 18 MO (STUDY DURATION: 31 MO), Tumor Site: Type of Lesion: LUNG: TUMOR active; positive | Species: RAT, Strain/Sex: WISTAR/MALE, Route: INHALATION, Dose: 0, 30 UG/M3 CADMIUM OXIDE DUST 22 HR/D 7 D/WK FOR 18 MO ADMINISTERED TO RATS MAINTAINED ON ZINC REDUCED (24 PPM) DIET (S, Tumor Site: Type of Lesion: LUNG: TUMOR active; positive | Species: RAT, Strain/Sex: WISTAR/MALE, Route: INHALATION, Dose: 0, 30 UG/M3 CADMIUM OXIDE FUME 22 HR/D 7 D/WK FOR 18 MO (STUDY DURATION: 31 MO), Tumor Site: Type of Lesion: LUNG: TUMOR active; positive | Species: RAT, Strain/Sex: WISTAR/MALE, Route: INHALATION, Dose: 0, 30 UG/M3 DUST 22 HR/D 7 D/WK FOR 18 MO (STUDY DURATION: 31 MO), Tumor Site: Type of Lesion: LUNG: ALVEOLAR/BRONCHIOLAR ADENOMA, ADENOCARCINOMA, SQUAMOUS CELL CARCINOMA active; positive | Species: RAT, Strain/Sex: WISTAR/MALE, Route: INHALATION, Dose: 0, 30 UG/M3 DUST 22 HR/D 7 D/WK FOR 18 MO MAINTAINED ON ZN REDUCED DIET (24 PPM) FOR STUDY DURATION (STUDY DURATION: 29, Tumor Site: Type of Lesion: LUNG: ALVEOLAR/BRONCHIOLAR ADENOMA, ADENOCARCINOMA, SQUAMOUS CELL CARCINOMA active; positive | Species: RAT, Strain/Sex: WISTAR/MALE, Route: INHALATION, Dose: 0, 30 UG/M3 FUME 22 HR/D 7 D/WK FOR 18 MO (STUDY DURATION: 31 MO), Tumor Site: Type of Lesion: LUNG: ALVEOLAR/BRONCHIOLAR ADENOMA, ADENOCARCINOMA active; positive | Species: RAT, Strain/Sex: WISTAR/MALE, Route: INHALATION, Dose: 0, 30 UG/M3 OF CADMIUM OXIDE DUST 22 HR/D 7 D/WK FOR 18 MO (STUDY DURATION: 29 MO), Tumor Site: Type of Lesion: LUNG: ALVEOLAR/BRONCHIOLAR ADENOMA, ADENOCARCINOMA active; positive | Species: RAT, Strain/Sex: WISTAR/MALE, Route: INHALATION, Dose: 0, 30 UG/M3 OF CADMIUM OXIDE DUST 22 HR/D 7 D/WK FOR 18 MO (STUDY DURATION: 31 MO), Tumor Site: Type of Lesion: LUNG: ALVEOLAR/BRONCHIOLAR ADENOMA, ADENOCARCINOMA, SQUAMOUS CELL CARCINOMA active; positive | Species: RAT, Strain/Sex: WISTAR/MALE, Route: INHALATION, Dose: 0, 90 UG/M3 CADMIUM OXIDE DUST 22 HR/D 7 D/WK FOR 7 MO (STUDY DURATION: 31 MO), Tumor Site: Type of Lesion: LUNG: ADENOMA OR ADENOCARCINOMA OR SQUAMOUS CELL TUMOR active; positive | Species: RAT, Strain/Sex: WISTAR/MALE, Route: INHALATION, Dose: 0, 90 UG/M3 CADMIUM OXIDE DUST 22 HR/D 7 D/WK FOR 7 MO (STUDY DURATION: 31 MO), Tumor Site: Type of Lesion: LUNG: TUMOR active; positive | Species: RAT, Strain/Sex: WISTAR/MALE, Route: INHALATION, Dose: 0, 90 UG/M3 CADMIUM OXIDE DUST DISCONTINOUS EXPOSURE FOR 40 HR/WK FOR 6 MO (STUDY DURATION: 31 MO), Tumor Site: Type of Lesion: LUNG: TUMOR active; positive | Species: RAT, Strain/Sex: WISTAR/MALE, Route: INHALATION, Dose: 0, 90 UG/M3 DUST 8 HR/D 5 D/WK FOR 6 MO (STUDY DURATION: 31 MO), Tumor Site: Type of Lesion: LUNG: ALVEOLAR/BRONCHIOLAR ADENOMA, ADENOCARCINOMA, SQUAMOUS CELL CARCINOMA active; positive | Species: RAT, Strain/Sex: WISTAR/MALE, Route: INHALATION, Dose: 0, 90 UG/M3 DUST 22 HR/D 7 D/WK FOR 7 MO (STUDY DURATION: 31 MO), Tumor Site: Type of Lesion: LUNG: ALVEOLAR/BRONCHIOLAR ADENOMA, ADENOCARCINOMA active; positive | Species: RAT, Strain/Sex: WISTAR/MALE, Route: INHALATION, Dose: 0, 90 UG/M3 OF CADMIUM OXIDE DUST 22 HR/D 7 D/WK FOR 7 MO (STUDY DURATION: 31 MO), Tumor Site: Type of Lesion: LUNG: ALVEOLAR/BRONCHIOLAR ADENOMA, ADENOCARCINOMA active; positive
